The nature of data set [1]: Oral bioavailability in dog at 1 mg/kg. Type of data set: ADME, organism-based, Canis lupus familiaris. To be noted: in vivo.
A short description of data set [2]: Oral bioavailability in monkey at 2.5 mg/kg. Type of data set: ADME, organism-based, Macaca mulatta. To be noted: rhesus monkey, in vivo.
Data set [3] can be described thus: Half life in monkey at 0.25 mg/kg, iv and 2.5 mg/kg, po. The data set is classed as ADME, organism-based, Macaca mulatta. The settings on record: rhesus monkey, in vivo.
The target of data set [4] is Muscarinic acetylcholine receptor M3 (Homo sapiens) (UniProt P20309). As to the kind of experiment: Intrinsic activity at muscarinic M3 receptor (unknown origin) at 10 uM by calcium mobilization assay. Type of data set: functional. In general terms: Calcium flux is commonly read through the fluorescence of an indicator in the cells.
Muscarinic acetylcholine receptor M3 (Homo sapiens), sequence (P20309 whole entry, looked up): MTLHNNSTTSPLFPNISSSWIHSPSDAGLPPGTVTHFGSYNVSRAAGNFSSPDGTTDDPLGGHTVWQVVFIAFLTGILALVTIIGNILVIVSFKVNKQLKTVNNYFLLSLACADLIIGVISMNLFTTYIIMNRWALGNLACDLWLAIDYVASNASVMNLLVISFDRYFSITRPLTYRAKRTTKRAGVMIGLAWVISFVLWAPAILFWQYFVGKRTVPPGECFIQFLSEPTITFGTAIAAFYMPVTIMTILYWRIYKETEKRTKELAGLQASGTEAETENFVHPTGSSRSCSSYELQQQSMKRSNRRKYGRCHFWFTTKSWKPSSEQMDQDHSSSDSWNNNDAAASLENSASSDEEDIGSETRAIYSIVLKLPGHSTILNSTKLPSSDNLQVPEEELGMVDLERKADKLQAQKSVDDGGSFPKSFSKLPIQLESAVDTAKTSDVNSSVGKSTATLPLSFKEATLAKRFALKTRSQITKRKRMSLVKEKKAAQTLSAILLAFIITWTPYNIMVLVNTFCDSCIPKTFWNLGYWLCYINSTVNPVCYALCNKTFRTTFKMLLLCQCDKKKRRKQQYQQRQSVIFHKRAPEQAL
Data set [5] has as its target T1, Muscarinic acetylcholine receptor M4 (Homo sapiens) (UniProt P08173).
T1 sequence (whole entry): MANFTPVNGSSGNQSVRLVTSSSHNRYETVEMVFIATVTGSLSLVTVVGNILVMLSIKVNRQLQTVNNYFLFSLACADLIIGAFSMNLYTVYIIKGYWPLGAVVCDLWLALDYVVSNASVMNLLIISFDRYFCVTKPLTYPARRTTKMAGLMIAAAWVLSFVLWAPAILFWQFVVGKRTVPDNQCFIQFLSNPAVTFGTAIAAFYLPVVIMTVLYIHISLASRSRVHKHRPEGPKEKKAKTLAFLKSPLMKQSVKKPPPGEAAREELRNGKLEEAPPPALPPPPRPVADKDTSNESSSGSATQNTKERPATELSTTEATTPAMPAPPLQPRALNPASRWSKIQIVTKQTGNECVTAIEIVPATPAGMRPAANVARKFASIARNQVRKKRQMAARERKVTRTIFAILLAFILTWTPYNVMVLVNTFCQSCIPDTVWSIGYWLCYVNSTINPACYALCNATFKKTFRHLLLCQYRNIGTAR
As to the kind of experiment: Intrinsic activity at muscarinic M4 receptor (unknown origin) by calcium mobilization assay. The data set is classed as functional.

In data set [6] the target is T2, Muscarinic acetylcholine receptor M5 (Homo sapiens) (UniProt P08912).
T2 sequence (whole entry): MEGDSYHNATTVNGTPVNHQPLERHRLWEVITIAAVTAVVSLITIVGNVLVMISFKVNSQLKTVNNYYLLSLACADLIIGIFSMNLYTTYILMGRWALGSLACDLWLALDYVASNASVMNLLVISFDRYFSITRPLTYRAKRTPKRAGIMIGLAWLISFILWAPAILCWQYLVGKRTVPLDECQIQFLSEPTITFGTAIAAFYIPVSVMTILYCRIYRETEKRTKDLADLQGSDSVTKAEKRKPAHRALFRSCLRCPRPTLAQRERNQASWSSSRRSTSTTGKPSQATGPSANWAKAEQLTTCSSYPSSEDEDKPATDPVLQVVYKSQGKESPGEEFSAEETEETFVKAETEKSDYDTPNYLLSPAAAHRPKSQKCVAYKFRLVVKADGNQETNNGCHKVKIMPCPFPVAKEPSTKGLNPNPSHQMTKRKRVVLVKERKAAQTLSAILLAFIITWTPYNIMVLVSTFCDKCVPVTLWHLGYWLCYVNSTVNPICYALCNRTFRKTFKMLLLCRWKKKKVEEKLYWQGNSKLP
As to the kind of experiment: Intrinsic activity at muscarinic M5 receptor (unknown origin) at 10 uM by calcium mobilization assay. Type of data set: functional.

The subject of data set [7] is Rattus norvegicus. As to the kind of experiment: Antipsychotic-like effect in po dosed rat assessed as methamphetamine-induced locomotor hyperactivity. The data set is classed as functional.
Data set [8] addresses cAMP and cAMP-inhibited cGMP 3',5'-cyclic phosphodiesterase 10A (Homo sapiens) (UniProt Q9Y233). Briefly: Inhibition of human PDE10A1 at 3 uM by radioligand binding assay.
Data set [9] addresses Alpha-1A adrenergic receptor (Rattus norvegicus) (UniProt P43140). Briefly: Inhibition of rat alpha1A adrenergic receptor at 3 uM by radioligand binding assay.
Data set [10] concerns the target Alpha-2A adrenergic receptor (Homo sapiens) (UniProt P08913). Briefly: Inhibition of human alpha2A adrenergic receptor at 3 uM by radioligand binding assay.
Data set [11] concerns the target Beta-2 adrenergic receptor (Homo sapiens) (UniProt P07550). As to the kind of experiment: Inhibition of human beta2 adrenergic receptor at 3 uM by radioligand binding assay.
For data set [12], the target named is L-type calcium channel, dihydropyridine binding site (Rattus norvegicus, UniProt P22002+P27732+Q02485). Briefly: Inhibition of rat L-type calcium channel dihydropyridine binding site at 3 uM by radioligand binding assay. Type of data set: protein assay.
In data set [13] the target is D(2) dopamine receptor (Homo sapiens) (UniProt P14416). As to the kind of experiment: Inhibition of human dopamine D2S receptor at 3 uM by radioligand binding assay.
D(2) dopamine receptor (Homo sapiens), sequence (P14416 whole entry): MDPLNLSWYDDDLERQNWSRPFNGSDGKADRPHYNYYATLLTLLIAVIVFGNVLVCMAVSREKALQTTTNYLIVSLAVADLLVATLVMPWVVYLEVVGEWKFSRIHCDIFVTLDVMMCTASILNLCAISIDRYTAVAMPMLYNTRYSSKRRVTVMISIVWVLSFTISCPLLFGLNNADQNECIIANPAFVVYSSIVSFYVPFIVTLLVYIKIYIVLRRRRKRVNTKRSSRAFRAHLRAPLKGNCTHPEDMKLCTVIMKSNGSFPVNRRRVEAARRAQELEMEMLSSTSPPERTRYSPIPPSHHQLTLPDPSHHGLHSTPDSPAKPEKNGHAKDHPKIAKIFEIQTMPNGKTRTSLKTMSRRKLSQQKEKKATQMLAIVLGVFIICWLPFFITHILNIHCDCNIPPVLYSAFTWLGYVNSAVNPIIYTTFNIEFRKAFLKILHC
The species entered for data set [14] is Rattus norvegicus. Briefly: Inhibition of rat GABAB type receptor at 3 uM by radioligand binding assay.
Data set [15] deals with Neuropeptide Y receptor type 1 (Homo sapiens) (UniProt P25929). Briefly: Inhibition of human neuropeptide YY1 receptor at 3 uM by radioligand binding assay.
Neuropeptide Y receptor type 1 (Homo sapiens), sequence (P25929 whole entry): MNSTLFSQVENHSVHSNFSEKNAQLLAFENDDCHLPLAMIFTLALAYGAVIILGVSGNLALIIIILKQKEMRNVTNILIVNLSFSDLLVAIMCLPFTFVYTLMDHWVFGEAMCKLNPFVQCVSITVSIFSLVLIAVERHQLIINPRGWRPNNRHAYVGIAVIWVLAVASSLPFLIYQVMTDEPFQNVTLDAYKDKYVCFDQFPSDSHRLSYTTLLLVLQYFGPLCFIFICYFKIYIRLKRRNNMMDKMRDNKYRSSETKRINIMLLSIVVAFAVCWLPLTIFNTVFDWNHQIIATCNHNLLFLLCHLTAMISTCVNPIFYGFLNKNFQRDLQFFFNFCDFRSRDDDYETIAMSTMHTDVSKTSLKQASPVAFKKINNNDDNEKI
A further data set is filed under the species Homo sapiens. Briefly: Inhibition of human nicotinic acetylcholine receptor at 3 uM by radioligand binding assay.
The species named for data set [16] is Rattus norvegicus. As to the kind of experiment: Displacement of [125I]alpha-bungarotoxin from rat nicotinic acetylcholine receptor at 3 uM by radioligand binding assay. On the technique in general: Displacement assays read how much labelled ligand stays bound in the presence of the test substance.
In data set [17] the target is 5-hydroxytryptamine receptor 2B (Homo sapiens) (UniProt P41595). Briefly: Inhibition of human 5-HT2B receptor at 3 uM by radioligand binding assay.
5-hydroxytryptamine receptor 2B (Homo sapiens), sequence (P41595 whole entry): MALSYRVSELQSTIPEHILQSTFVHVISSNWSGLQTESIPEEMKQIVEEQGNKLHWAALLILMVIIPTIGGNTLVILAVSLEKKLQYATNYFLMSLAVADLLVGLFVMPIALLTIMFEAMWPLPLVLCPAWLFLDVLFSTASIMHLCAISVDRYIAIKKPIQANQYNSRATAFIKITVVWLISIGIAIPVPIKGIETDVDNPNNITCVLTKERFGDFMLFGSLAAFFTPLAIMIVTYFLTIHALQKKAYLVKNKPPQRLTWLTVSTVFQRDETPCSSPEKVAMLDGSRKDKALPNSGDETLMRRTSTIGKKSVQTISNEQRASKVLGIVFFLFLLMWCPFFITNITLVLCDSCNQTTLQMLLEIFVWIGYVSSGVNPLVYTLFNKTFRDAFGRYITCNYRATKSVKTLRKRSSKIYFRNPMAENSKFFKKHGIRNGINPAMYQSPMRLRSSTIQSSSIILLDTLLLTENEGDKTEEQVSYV
The species entered for data set [18] is Rattus norvegicus. As to the kind of experiment: Inhibition of rat thyroid hormone receptor at 3 uM by radioligand binding assay.
Data set [19] concerns the target Muscarinic acetylcholine receptor M1 (Homo sapiens, UniProt P11229). As to the kind of experiment: Agonist activity at muscarinic M1 receptor (unknown origin) by calcium mobilization assay. Type of data set: functional.
The target in data set [20] is Muscarinic acetylcholine receptor M3 (Homo sapiens) (UniProt P20309). As to the kind of experiment: Agonist activity at muscarinic M3 receptor (unknown origin) at 0.3 uM by calcium mobilization assay. The data set is classed as functional.
Data set [21] is described as follows: Lipophilicity, log P of the compound. To be noted: octanol/water. Type of data set: physicochemical.
The subject of a further data set is Cricetinae. The settings on record: 3 uM.

cAMP and cAMP-inhibited cGMP 3',5'-cyclic phosphodiesterase 10A (Homo sapiens), sequence (Q9Y233 whole entry): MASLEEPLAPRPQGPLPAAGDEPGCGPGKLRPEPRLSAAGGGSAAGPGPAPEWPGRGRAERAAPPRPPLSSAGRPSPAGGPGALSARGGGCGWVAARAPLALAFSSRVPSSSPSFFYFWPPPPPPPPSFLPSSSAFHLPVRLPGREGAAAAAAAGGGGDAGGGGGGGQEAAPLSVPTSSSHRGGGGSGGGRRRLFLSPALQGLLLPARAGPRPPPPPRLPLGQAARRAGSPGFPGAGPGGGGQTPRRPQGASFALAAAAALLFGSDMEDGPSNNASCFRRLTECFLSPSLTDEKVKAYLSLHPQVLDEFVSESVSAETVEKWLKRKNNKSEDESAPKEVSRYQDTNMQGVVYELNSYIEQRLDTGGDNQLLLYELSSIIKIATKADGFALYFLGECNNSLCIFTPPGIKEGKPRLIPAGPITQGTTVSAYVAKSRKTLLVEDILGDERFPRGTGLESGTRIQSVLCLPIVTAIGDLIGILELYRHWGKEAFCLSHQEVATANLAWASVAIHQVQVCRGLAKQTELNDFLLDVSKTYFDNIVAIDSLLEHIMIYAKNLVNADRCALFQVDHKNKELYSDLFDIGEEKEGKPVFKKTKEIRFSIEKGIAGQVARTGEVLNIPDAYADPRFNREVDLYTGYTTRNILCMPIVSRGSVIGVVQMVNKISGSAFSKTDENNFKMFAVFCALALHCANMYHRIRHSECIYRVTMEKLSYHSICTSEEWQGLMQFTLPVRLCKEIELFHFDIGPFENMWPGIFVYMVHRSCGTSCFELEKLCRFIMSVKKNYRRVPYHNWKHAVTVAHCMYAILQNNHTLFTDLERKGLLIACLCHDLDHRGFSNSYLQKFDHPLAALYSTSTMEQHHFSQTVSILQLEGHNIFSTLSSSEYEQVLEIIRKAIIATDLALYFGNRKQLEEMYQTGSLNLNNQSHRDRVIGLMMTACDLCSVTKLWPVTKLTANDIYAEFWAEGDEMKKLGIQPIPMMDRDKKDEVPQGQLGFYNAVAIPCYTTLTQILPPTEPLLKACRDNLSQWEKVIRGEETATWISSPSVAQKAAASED
Alpha-1A adrenergic receptor (Rattus norvegicus), sequence (P43140 whole entry): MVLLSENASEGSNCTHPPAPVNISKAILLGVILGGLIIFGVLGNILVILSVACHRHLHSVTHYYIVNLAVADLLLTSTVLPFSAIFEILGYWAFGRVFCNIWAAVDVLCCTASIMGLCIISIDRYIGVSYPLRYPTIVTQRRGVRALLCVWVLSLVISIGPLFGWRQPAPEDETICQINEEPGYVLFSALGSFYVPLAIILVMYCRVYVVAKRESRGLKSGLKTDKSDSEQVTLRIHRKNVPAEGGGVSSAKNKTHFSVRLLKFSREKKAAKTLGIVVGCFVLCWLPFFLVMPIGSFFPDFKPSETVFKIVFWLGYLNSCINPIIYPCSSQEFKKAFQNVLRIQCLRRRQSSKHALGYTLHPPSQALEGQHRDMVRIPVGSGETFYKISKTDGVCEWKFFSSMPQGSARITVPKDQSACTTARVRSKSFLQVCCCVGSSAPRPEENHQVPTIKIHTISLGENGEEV
Alpha-2A adrenergic receptor (Homo sapiens), sequence (P08913 whole entry): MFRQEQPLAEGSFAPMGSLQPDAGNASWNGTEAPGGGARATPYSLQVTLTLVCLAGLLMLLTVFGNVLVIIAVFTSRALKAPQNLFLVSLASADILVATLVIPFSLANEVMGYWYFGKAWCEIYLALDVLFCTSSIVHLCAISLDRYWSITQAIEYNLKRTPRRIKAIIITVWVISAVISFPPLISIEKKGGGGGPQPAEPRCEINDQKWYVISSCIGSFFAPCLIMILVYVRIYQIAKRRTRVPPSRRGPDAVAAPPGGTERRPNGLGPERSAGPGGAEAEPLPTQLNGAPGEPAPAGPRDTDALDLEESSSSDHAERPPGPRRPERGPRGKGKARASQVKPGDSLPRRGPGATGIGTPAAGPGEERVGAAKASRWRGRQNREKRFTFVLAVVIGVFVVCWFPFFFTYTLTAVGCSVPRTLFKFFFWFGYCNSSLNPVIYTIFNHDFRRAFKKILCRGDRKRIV
Beta-2 adrenergic receptor (Homo sapiens), sequence (P07550 whole entry, looked up): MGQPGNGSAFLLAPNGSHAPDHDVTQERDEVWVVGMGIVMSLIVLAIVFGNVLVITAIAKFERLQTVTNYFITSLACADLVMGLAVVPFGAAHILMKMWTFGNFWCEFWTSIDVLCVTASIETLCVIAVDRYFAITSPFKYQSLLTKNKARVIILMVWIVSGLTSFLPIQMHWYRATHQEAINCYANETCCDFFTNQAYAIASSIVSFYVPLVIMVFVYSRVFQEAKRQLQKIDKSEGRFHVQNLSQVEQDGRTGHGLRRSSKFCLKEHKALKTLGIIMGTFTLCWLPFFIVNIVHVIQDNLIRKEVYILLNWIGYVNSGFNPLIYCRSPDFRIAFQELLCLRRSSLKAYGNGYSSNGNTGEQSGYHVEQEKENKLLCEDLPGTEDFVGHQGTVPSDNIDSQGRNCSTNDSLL
Muscarinic acetylcholine receptor M1, sequence (P11229 whole entry): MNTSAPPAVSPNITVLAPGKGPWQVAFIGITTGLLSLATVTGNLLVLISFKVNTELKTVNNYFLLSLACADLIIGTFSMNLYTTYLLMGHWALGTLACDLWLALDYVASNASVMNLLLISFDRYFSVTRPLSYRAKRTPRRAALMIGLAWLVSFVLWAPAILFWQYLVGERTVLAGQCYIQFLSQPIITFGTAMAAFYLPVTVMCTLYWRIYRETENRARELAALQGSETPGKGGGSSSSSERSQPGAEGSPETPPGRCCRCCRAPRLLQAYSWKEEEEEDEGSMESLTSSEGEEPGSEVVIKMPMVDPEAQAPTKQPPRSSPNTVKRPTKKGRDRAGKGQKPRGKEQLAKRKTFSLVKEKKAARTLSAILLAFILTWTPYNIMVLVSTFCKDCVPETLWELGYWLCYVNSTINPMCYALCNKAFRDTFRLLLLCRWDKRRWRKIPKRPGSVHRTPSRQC
Description for Cricetinae: Inhibition of hamster potassium channel at 3 uM by radioligand binding assay

By bioavailability is commonly meant dose-corrected exposure relative to a reference, in per cent. Usually half-life stands for the time in which the quantity being followed falls by half. Broadly, the ED50 is the dose that gives a 50% effect, or the effect in half of the subjects. What is called inhibition is the change of the read-out against control, counted positive when it falls. Usually EC50 stands for the concentration that produces a half-maximal response. Usually logP stands for the decadic logarithm of the partition coefficient of the neutral form, usually between octanol and water. Turning to `CCOC(=O)N1CCC(CN2CCC3(CC2)CN(C(=O)N(C)C)c2ncccc23)CC1.O=C(O)/C=C/C(=O)O`, the figures for the bioavailability in data set [1] and in data set [2] were 49.3% and 39.8%, respectively. This compound also had a half-life in data set [3] of 286 min. The Intrinsic activity is 2% in [4], 108% in data set [5] and 11% in data set [6]. Further, in the data set with Rattus norvegicus [7], the ED50 was 1.44 mg/kg. Moreover, the inhibition in [8] is -2%; in data set [9], 37%; in [10], -7%; in [11], -1%; in data set [13], 2%; in the data set filed under Rattus norvegicus [14] it was 14%. Moreover, the inhibition in data set [15] was -2%; in the data set listed under Homo sapiens it was 9%; in the data set listed under Rattus norvegicus [16], 7%; in data set [17], 11%; in the data set filed under Rattus norvegicus [18], 4%; in the data set on Cricetinae, 6%. Further, the inhibition at 3 µM in [12] was determined as 11%. For the same compound, the EC50 in data set [19] worked out at 133 nM. Also, the Activity in data set [20] worked out at 2%. This compound also registered a log partition coefficient (logP) in [21] of 1.3.
